Test results: patent US20130289083A1, “IDO Inhibitors” (priority 2007, published 2013)
Where two headings read alike, the source gives them in different places.

Tests used:
[1] = molecular target: purified human IDO protein (Homo sapiens, UniProt P14902); assay: Enzymatic IDO assay (kynurenine production, absorbance 480 nm); settings: enzymatic activity
human IDO = human IDO (Homo sapiens, UniProt P14902); assay: Cell based IDO/kynurenine assay in IDO-293-T-Rex cells; settings: kynurenine production, read-out: hIDO EC50
Protocol: 293-T-REx™ cells (Invitrogen) constitutively express a tet operator binding repressor protein and are maintained in DMEM, 10% FBS, 1× Penicillin+Streptomycin, 2 mM L-glutamine, 5 μg/mL blasticidin at 37° C. with a 5% CO2 in air atmosphere and typically split prior to confluency. Cells were passed by splitting the culture 1/10—by removing media by aspiration, washing 1× with PBS, incubating with 0.25% trypsin/EDTA until the cells detach, disbursing the cells in fresh growth media, and plating at 1/10 dilutions in fresh growth media. For long term cryopreservation, cells are detached from the plate as described above, collected by centrifugation, resuspended in freeze medium (growth medium, 10% DMSO), stored in 1.8 mL cyropreservation vials (˜2−5×10^6 cells per vial), in liquid nitrogen vapor storage tanks.
IDOl-expressing 293-T-Rex™ cell lines were generated by stable transfection of plasmid pcDNA-tetO-IDO expressing human IDO or murine IDO under the control of the doxycycline-inducible CMV-tet promoter. Transfected cells were selected in DBZ medium (DMEM, 10% FBS, 1× Penicillin+Streptomycin, 2 mM L-glutamine, 5 μg/mL blasticidin and 25 μg/ml Zeocin) at 37° C. with a 5% CO2 in air atmosphere. Individual clones were isolated by limiting dilution cloning from these populations.
[…]. The cells incubated in Neutral medium serve as negative control of the assay. The cells incubated in Induction medium and without inhibitor serve as the positive control of the assay. The incubation is carried out for 16 h at 37° C. in a cell culture incubator. 200 μL of medium are transferred to U-bottom polypropylene 96-well plates containing 25 μL of 30% TCA, incubated 30 minutes at 60° C. and centrifuged at 3400 g for 5 minutes. 150 μL of the clear supernatant is transferred to a polystyrene 96-well plate containing 50 μL of 4% (w/v) of p-dimethylaminobenzaldehyde in acetic acid, incubated for 10 min. Kynurenine concentration is determined by measuring the absorbance at 480 nm.
The conditions of the assay were as described in the examples.

[2] = hIDO IC50, recombinant human IDO, values reported in ranges
[3] = 293T cell line stably expressing human IDO, values reported in ranges
[4] = read-out: hIDO IC50, recombinant human IDO, values reported in ranges
[5] = Table 15, 293T cells expressing human IDO
[6] = hIDO IC50, Table 15, recombinant human IDO
[7] = hIDO IC50, Table 16, recombinant human IDO

Chain of human IDO (P14902 whole entry): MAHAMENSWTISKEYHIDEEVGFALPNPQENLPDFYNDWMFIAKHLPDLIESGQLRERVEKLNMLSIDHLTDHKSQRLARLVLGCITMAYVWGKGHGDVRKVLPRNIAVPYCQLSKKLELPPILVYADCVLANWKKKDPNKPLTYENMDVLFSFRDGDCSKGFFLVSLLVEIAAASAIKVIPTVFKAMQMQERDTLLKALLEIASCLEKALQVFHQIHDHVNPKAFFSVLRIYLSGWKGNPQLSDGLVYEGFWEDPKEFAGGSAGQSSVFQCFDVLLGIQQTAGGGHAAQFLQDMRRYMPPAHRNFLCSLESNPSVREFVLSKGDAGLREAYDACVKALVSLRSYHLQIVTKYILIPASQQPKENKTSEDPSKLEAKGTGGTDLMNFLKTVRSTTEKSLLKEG
Chain of purified human IDO protein (P14902 whole entry P110S/E119G): as the sequence (P14902 whole entry) above, with P110S, E119G counted along it

Row | Compound | IC50 [1, 2] | EC50 (human IDO; [3]) | also measured
1 | CSC(=S)NCCc1ccc(C)cc1C [compound 66, Methyl 2,4-dimethylphenethylcarbamodithioate] | 100 to 1000 µM | 100 to 1000 µM | 
2 | CSC(=S)NCCc1c[nH]c2cc(Cl)cc(Cl)c12 [compound 43] |  | 100 to 1000 µM | IC50 [1, 4]: 100 to 1000 µM
3 | NOC(COc1ccccc1)c1ccccc1 (stereo not shown) [compound 1937, O-(2-phenoxy-1-phenylethyl)hydroxylamine] |  |  | EC50 (human IDO; [5]): < 10 µM; IC50 [1, 6]: < 10 µM
4 | O=C1CSC(=S)N1Cc1c[nH]c2ccccc12 [compound 78, 3-((1H-indol-3-yl)methyl)-2-thioxothiazolidin-4-one] | 100 to 1000 µM | 100 to 1000 µM | 
5 | C=CCOc1ccc(CC)c(OCC=C)c1 [compound 252, 2,4-bis(allyloxy)-1-ethylbenzene] | 100 to 1000 µM | 20 to 100 µM | 
6 | NO[C@H](Cc1ccccc1)C(=O)O [compound 1690, (R)-2-(aminooxy)-3-phenylpropanoic acid] |  |  | IC50 [1, 7]: 100 to 1000 µM
7 | O=C(O)Cc1cccc2sccc12 [compound 307, 2-(benzo[b]thiophen-4-yl)acetic acid] | < 20 µM | 1000 to 10000 µM | 
8 | S=C(NC1CSc2ccccc2C1)SCc1ccc2ccccc2c1 (stereo not shown) [compound 64, naphhalen-2-ylmethyl thiochroman-3-ylcarbamodithioate] |  | 20 to 100 µM | IC50 [1, 4]: 100 to 1000 µM
9 | S=C(NCCc1c[nH]c2ccccc12)SCCc1ccccc1 [compound 1, Phenethyl 2-(1H-indol-3-yl)ethylcarbamodithioate] | 100 to 1000 µM | 100 to 1000 µM | 
10 | CNCCC(ON)c1ccccc1 (stereo not shown) [compound 1904, 3-(aminooxy)-N-methyl-3-phenylpropan-1-amine] |  |  | IC50 [1, 6]: 100 to 1000 µM
11 | COc1cc2oc(=O)cc(CSC(=S)NCCc3c[nH]c4ccccc34)c2cc1OC [compound 23, (6,7-Dimethoxy-2-oxo-2H-chromen-4-yl)methyl 2-(1H-indol-3-yl)ethyl-carbamodithioate] | 100 to 1000 µM | 20 to 100 µM | 
12 | NOC(CCC1CCCCC1)c1ccccc1 (stereo not shown) [compound 1938, O-(3-cyclohexyl-1-phenylpropyl)hydroxylamine] |  |  | EC50 (human IDO; [5]): < 10 µM; IC50 [1, 6]: < 10 µM
13 | NC(CSC(=S)NCc1ccccc1)C(=O)O (stereo not shown) [compound 138, 2-amino-3-(benzylcarbamothioylthio)-propanoic acid] | 100 to 1000 µM | 20 to 100 µM | 
14 | S=C(NCCc1c[nH]c2ccccc12)SCCc1cccc(Br)c1 [compound 7, 3-Bromophenethyl 2-(1H-indol-3-yl)ethylcarbamodithioate] | 100 to 1000 µM | 100 to 1000 µM | 
15 | Cc1ccc(CCSC(=S)NCCc2c[nH]c3ccccc23)cc1 [compound 9, 4-Methylphenethyl 2-(1H-indol-3-yl)ethylcarbamodithioate] | 100 to 1000 µM | 20 to 100 µM | 
16 | CSC(=S)NCCc1c[nH]c2cc(F)c(F)c(F)c12 [compound 45] |  | 100 to 1000 µM | IC50 [1, 4]: 100 to 1000 µM
17 | S=C(NCCc1c[nH]c2ccccc12)SCCc1ccc2c(c1)OCCO2 [compound 53, 2-(2,3-Dihydrobenzo[b][1,4]dioxin-6-yl)ethyl 2-(1H-indol-3-yl)ethyl-carbamodithioate] | 100 to 1000 µM | 20 to 100 µM | 
18 | O=C1CSC(=S)N1Cc1ccccc1 [compound 79, 3-Benzyl-2-thioxothiazolidin-4-one] | 20 to 100 µM | < 20 µM | 
19 | NCCC(ON)c1ccccc1 (stereo not shown) [compound 1877, 3-(aminooxy)-3-phenylpropan-1-amine] |  |  | IC50 [1, 6]: 10 to 100 µM
20 | CSC(=S)NC(C)(C)Cc1c[nH]c2ccccc12 [compound 28, Methyl 1-(1H-indol-3-yl)-2-methylpropan-2-ylcarbamodithioate] | 100 to 1000 µM | 20 to 100 µM | 
21 | Oc1cccc2ccccc12 [compound 168, naphthalen-1-ol] | 100 to 1000 µM | 100 to 1000 µM | 

Row | Compound | IC50 [1, 2] | EC50 (human IDO; [3]) | also measured
22 | NOC(CCN1CCOCC1)c1ccccc1 (stereo not shown) [compound 1929, O-(3-morpholino-1-phenylpropyl)hydroxylamine] |  |  | IC50 [1, 6]: 100 to 1000 µM
23 | COc1ccc(CCSC(=S)NCCc2c[nH]c3ccccc23)cc1 [compound 2, 4-Methoxyphenethyl 2-(1H-indol-3-yl)ethylcarbamodithioate] | 100 to 1000 µM | 100 to 1000 µM | 
24 | O=C1C(CSC(=S)Nc2ccccc2)NC(=S)N1c1ccccc1 (stereo not shown) [compound 151, (5-oxo-1-phenyl-2-thioxoimidazolidin-4-yl)methyl phenylcarbamodithioate] | 100 to 1000 µM | 100 to 1000 µM | 
25 | NOC(CN1CCOCC1)c1ccccc1 (stereo not shown) [compound 1936, O-(2-morpholino-1-phenylethyl)hydroxylamine] |  |  | IC50 [1, 6]: 10 to 100 µM
26 | NOc1ccccc1 [compound 1900, O-phenylhydroxylamine] |  |  | IC50 [1, 7]: 10 to 100 µM
27 | NO[C@@H](CCO)c1ccccc1 [compound 1883, (S)-3-(aminooxy)-3-phenylpropan-1-ol] |  |  | IC50 [1, 6]: 100 to 1000 µM
28 | CNC(=O)[C@H](ON)c1ccccc1 [compound 2034, (R)-2-(aminooxy)-N-methyl-2-phenylacetamide] |  |  | IC50 [1, 6]: 100 to 1000 µM
29 | CC(=O)NCC(ON)c1ccccc1 (stereo not shown) [compound 1899, N-(2-(aminooxy)-2-phenylethyl)acetamide] |  |  | IC50 [1, 6]: 100 to 1000 µM
30 | NOC(CCC(=O)NC1CCCCC1)c1ccccc1 (stereo not shown) [compound 1901, 4-(aminooxy)-N-cyclohexyl-4-phenylbutanamide] |  |  | IC50 [1, 6]: 100 to 1000 µM
31 | S=C(NCCCc1c[nH]c2ccccc12)Nc1nccs1 [compound 565, 1-(3-(1H-indol-3-yl)propyl)-3-(thiazol-2-yl)thiourea] | 100 to 1000 µM |  | 
32 | CCC(CC)C1NC(C(=O)O)Cc2c1[nH]c1ccccc21 (stereo not shown) [compound 525, 1-(pentan-3-yl)-2,3,4,9-tetrahydro-1H-pyrido[3,4-b]indole-3-carboxylic acid] | 100 to 1000 µM |  | 
33 | CSC(=S)NCCc1ccncc1 [compound 69, Methyl 2-(pyridin-4-yl)ethylcarbamodithioate] | 100 to 1000 µM |  | 
34 | CNC(=O)[C@@H](ON)c1ccccc1 [compound 2033, (S)-2-(aminooxy)-N-methyl-2-phenylacetamide] |  |  | IC50 [1, 6]: < 10 µM
35 | S=C(NCc1c[nH]c2ccccc12)Nc1nccs1 [compound 568, 1-((1H-indol-3-yl)methyl)-3-(thiazol-2-yl)thiourea] | 100 to 1000 µM |  | 
36 | CNCC(ON)c1ccccc1 (stereo not shown) [compound 1902, 2-(aminooxy)-N-methyl-2-phenylethanamine] |  |  | IC50 [1, 6]: 100 to 1000 µM
37 | S=C1SCCCN1Cc1ccccc1 [compound 77, 3-Benzyl-1,3-thiazinane-2-thione] | 100 to 1000 µM |  | 
38 | Cc1cccc(CCSC(=S)NCCc2c[nH]c3ccccc23)c1 [compound 20, 3-Methylphenethyl 2-(1H-indol-3-yl)ethylcarbamodithioate] | 100 to 1000 µM |  | 
39 | O=C(O)CCn1[nH]c(=O)c2ccccc21 [compound 267, 3-(3-oxo-2,3-dihydro-1H-indazol-1-yl)propanoic acid] | 100 to 1000 µM |  | 
40 | S=C(NCc1ccc2ccccc2c1)Nc1nccs1 [compound 591, 1-(naphthalen-2-ylmethyl)-3-(thiazol-2-yl)thiourea] | 100 to 1000 µM |  | 
41 | CC(C)(C)OC(=O)NCC(ON)c1ccccc1 (stereo not shown) [compound 1876, tert-butyl 2-(aminooxy)-2-phenylethylcarbamate] |  |  | IC50 [1, 6]: 100 to 1000 µM
42 | S=C1OCCN1Cc1ccccc1 [compound 81, 3-Benzyloxazolidine-2-thione] | 100 to 1000 µM |  | 

The next lines start with results.

Row | IC50 [1, 2] | EC50 (human IDO; [3]) | Compound | also measured
43 | 100 to 1000 µM |  | OCCc1c[nH]c2ccccc12 [compound 606, 2-(1H-indol-3-yl)ethanol] | 
44 | 100 to 1000 µM | 20 to 100 µM | O=C(Cc1ccc2ccccc2c1)NO [compound 827, N-hydroxy-2-(naphthalen-2-yl)acetamide] | 
45 | 20 to 100 µM | 20 to 100 µM | Oc1ccccc1C(=S)NCc1ccc2ccccc2c1 [compound 607, 2-hydroxy-N-(naphthalen-2-ylmethyl)benzothioamide] | 
46 | 100 to 1000 µM |  | Nc1ccccc1NC(=O)CCc1c[nH]c2ccccc12 [compound 592, N-(2-aminophenyl)-3-(1H-indol-3-yl)propanamide] | 
47 | 100 to 1000 µM |  | O=C(Cc1ccccc1)NO [compound 889, N-hydroxy-2-phenylacetamide] | 
48 | 100 to 1000 µM |  | S=C1OCCN1Cc1ccc2ccccc2c1 [compound 786, 3-(Naphthalen-2-ylmethyl)oxazolidine-2-thione] | 
49 | 100 to 1000 µM |  | S=C(NCCCc1c[nH]c2ccccc12)c1ccccc1 [compound 673, N-(3-(1H-indol-3-yl)propyl)benzothioamide] | 
50 | 100 to 1000 µM |  | Oc1ccc(Cc2ccccc2)c2cccnc12 [compound 664, 5-benzylquinolin-8-ol] | 
51 | 100 to 1000 µM |  | Oc1noc(O)c1-c1ccccc1 [compound 707, 4-phenylisoxazole-3,5-diol] | 
